pIC50: −log10 of the molar value. Where “and” joins values, the source holds several entries; their conditions need not be identical. Equal entries are not always repeated.

The term pIC50 denotes the IC50 on a negative log10 scale, so that one unit is a factor of ten.

For data set [1], the target named is T1, bovine aortic sarcolemma membrane vesicles ([^125 I]ChTX binding) (Bos taurus, UniProt Q28204).
T1 construct: bovine aortic sarcolemma membrane vesicles; from tissue; host or cells: bovine aorta (smooth muscle) sarcolemma membrane vesicles
T1 sequence (Q28204 whole entry): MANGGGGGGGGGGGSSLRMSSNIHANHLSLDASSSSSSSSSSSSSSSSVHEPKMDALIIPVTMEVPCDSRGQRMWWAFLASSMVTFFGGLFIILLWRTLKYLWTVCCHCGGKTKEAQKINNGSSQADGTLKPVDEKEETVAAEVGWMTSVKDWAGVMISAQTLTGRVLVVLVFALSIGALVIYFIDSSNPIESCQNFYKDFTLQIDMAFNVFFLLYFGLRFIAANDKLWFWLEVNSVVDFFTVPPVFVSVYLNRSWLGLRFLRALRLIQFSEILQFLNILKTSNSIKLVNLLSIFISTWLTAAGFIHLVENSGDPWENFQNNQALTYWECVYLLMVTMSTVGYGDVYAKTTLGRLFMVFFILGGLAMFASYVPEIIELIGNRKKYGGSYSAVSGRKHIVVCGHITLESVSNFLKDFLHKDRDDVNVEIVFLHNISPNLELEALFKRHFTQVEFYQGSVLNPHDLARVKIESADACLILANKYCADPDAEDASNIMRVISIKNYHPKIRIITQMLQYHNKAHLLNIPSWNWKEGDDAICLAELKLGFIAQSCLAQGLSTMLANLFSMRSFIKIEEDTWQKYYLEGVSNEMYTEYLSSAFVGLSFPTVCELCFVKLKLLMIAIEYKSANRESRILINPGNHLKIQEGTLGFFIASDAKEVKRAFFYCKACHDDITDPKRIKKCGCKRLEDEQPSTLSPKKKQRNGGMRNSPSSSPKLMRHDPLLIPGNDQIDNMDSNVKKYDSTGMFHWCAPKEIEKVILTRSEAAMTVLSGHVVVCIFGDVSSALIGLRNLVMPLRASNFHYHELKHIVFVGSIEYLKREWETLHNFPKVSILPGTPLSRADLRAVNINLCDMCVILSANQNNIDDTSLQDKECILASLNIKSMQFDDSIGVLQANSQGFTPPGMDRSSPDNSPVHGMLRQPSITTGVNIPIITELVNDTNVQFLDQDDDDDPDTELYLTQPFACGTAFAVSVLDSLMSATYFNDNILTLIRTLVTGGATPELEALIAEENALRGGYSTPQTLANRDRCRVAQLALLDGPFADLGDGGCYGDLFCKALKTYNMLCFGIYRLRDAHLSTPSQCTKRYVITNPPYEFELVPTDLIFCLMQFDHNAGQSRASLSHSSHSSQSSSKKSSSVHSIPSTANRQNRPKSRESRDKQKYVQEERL
In words: [^125 I]ChTX (Charybdotoxin) binding to bovine aortic sarcolemma membrane vesicles. As to the method: The interaction of [^125 I]ChTX (Charybdotoxin) with bovine aortic sarcolemma membrane vesicles was determined under conditions as described in Vazquez et al., 1989, J. Biol. Chem. 264, 20902-20909. Briefly, sarcolemma membrane vesicles were incubated in 12×75 polystyrene robes with ca. 25 pM [^125 I]ChTX (2200 Ci/mmol), in the absence or presence of test compound, in a media consisting of 20 mM NaCl, 20 mM Tris-HCl pH 7.4, 0.1% bovine serum albumin, 0.1% digitonin. Nonspecific binding was determined in the presence of 10 nM ChTX. Incubations were carried out at room temperature until ligand binding equilibrium is achieved at ca. 90 min. At the end of the incubation period, samples were diluted with 4 mL ice-cold 100 mM NaCl, 20 mM Hepes-Tris pH 7.4 and filtered through GF/C glass fiber filters that have been presoaked in 0.5% polyethylenimine. Filters were rinsed twice with 4 mL ice-cold quench solution. Radioactivity associated with filters was determined in a gamma counter. Specific binding data in the presence of each compound (difference between total binding and nonspecific binding) was assessed relative to an untreated control.

In data set [2] the target is large-conductance calcium-activated potassium (maxi-K) channels (Bos taurus, UniProt Q28204). In words: Patch clamp recordings of maxi-K channel currents in excised inside-out membrane patches from cultured bovine aortic smooth muscle cells. The class given is biochemical. Conditions: 10 μM. As to the method: Pipettes were typically filled with solutions containing (mM): 150 KCl, 10 Hepes (4-(2-hydroxyethyl)-1-piperazineethanesulfonic acid), 1 Mg, 0.01 Ca, and adjusted to pH 7.20 with 3.7 mM KOH. After forming a high resistance (>10^9 ohms) seal between the sarcolemmal membrane and the pipette, the pipette was withdrawn from the cell forming an excised inside-out membrane patch. […] An Axopatch 1C amplifier (Axon Instruments, Foster City, Calif.) with a CV-4 headstage was used to control the voltage and to measure the currents flowing across the membrane patch. The input to the headstage was connected to the pipette solution with a Ag/AgCl wire, and the amplifier ground was connected to the bath solution with a Ag/AgCl wire covered with a robe filled with agar dissolved in 0.2M KCl. Maxi-K channels were identified by their large single channel conductance (~250 pS) and sensitivity of channel open probability to membrane potential and intracellular calcium concentration.
large-conductance calcium-activated potassium (maxi-K) channels, sequence (Q28204 whole entry): as above
large-conductance calcium-activated potassium (maxi-K) channels, sequence (Q28067 whole entry partner): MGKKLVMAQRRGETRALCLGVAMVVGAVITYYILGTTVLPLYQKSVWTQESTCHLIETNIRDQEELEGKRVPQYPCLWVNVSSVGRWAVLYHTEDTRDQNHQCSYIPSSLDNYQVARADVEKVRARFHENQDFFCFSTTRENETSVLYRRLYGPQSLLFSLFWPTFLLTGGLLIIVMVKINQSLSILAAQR
Data was stored on a RACAL STORE 4DS FM tape recorder (Racal Recorders, Vienna, Va.) or on digital video tape using a video casette recorder after digitizing the signal with VR-10 (Instrutech Corp., Belmont N.Y.) PCM video encoder. The signal was also recorded on chart paper with a GOULD 2400S chart recorder (Gould Inc., Cleveland Ohio). For quantitative analysis, the data was played into a DEC 11-73 (Digital Equipment Corp., Maynard, Mass.) after digitization with a DT2782-8D1A analogue to digital converter (Data Translation Inc., Marlboro, Mass.), or played into a MAC IIx or QUADRA 700 computer (Apple Computers) after digitization with an ITC-16 interface (Instrutech Corp., Belmont, N.Y.).

The next data set deals with maxi-K channels. In words: Maxi-K channel recordings in planar lipid bilayers with plasma membrane vesicles from bovine aortic smooth muscle. Particulars: 10 μM, lipid bilayer. The class given is biochemical. As to the method:
Planar lipid bilayers were formed from a solution of 1-palmitoyl-2-oleoylphosphatidylethanolamine (POPE) and 1-palmitoyloleoylphosphatidylcholine (POPC) in a 7/3 molar ratio dissolved in decane (50 mg/mL). This lipid solution was painted across a small hole (250 micron) separating two aqueous compartments and readily formed bilayers with capacitances of 200-250 pF. The solution on the side that the membranes were added (cis) contained (mM): 150 KCl, 10 Hepes, 0.01 Ca, 3.7 KOH, pH 7.20. The solution on the other side (trans) contained (mM): 25 KCl, 10 HEPES, 0.01 Ca, 3.7 KOH, pH 7.20. Plasma membrane vesicles purified from bovine aortic smooth muscle (Slaughter et al. 1989, Biochemistry 28, 3995-4002) were added to the cis side until channel incorporation occurred. After channel incorporation, the concentration of KCl on the trans side was increased to 150 mM to prevent further channel incorporation. The orientation of maxi-K channels after insertion into the bilayer was determined from the calcium and voltage sensitivity of the channel. […]
Data was stored on a RACAL STORE 4DS FM tape recorder (Racal Recorders, Vienna, Va.) or on digital video tape using a video casette recorder after digitizing the signal with VR-10 (Instrutech Corp., Belmont N.Y.) PCM video encoder. The signal was also recorded on chart paper with a GOULD 2400S chart recorder (Gould Inc., Cleveland Ohio). […]

The mark [3] stands for this setting: excised inside-out patch, result in words.
Setting [4] is: application to the intracellular side, excised inside-out patch.

On to `CCCCCCCC/C=C\CCCCCCCC(=O)OCC1=CC[C@@]2(C)C[C@H](O)[C@@](O)(C(C)C)[C@@H]2CC1` [Compound A], for which the negative-log IC50 (pIC50) in data set [1] was 6.44 and ~6.44. Further, the “inhibition of [^125 I]ChTX binding” value in data set [1] (result in words) is listed as “concentration-dependent inhibition”. In data set [2] (excised inside-out patch), the “time over which increase in channel open probability developed” value fell in the range of 5 to 10 min. Moreover, the “effect on channel open probability” value is “clear increases in channel open probability” in data set [2] (setting [3]) and “did not increase channel open probability” in the data set on maxi-K channels (outside face of the channel). Also, the “reversal of increase in channel open probability on washout” value in data set [2] (long (20-60 minutes) washout) is recorded as “slowly reversed after long (20-60 minutes) washout”. Also, the “increase in channel open probability” value with maxi-K channels (inside face of the channel) came to 1.4 fold.
For the compound `CC1=CC[C@@]2(C)C[C@H](O)[C@@](O)(C(C)C)[C@@H]2CC1` [Compound B, reference compound], in data set [1], the negative-log IC50 (pIC50) is 6.70. Besides, the “inhibition of [^125 I]ChTX binding” value in data set [1] (result in words) is “concentration-dependent inhibition”. For the same compound, the “effect on channel open probability” value in data set [2] (setting [3]) was “no clear effect on channel open probability”.
Consider `CCCCC/C=C\C/C=C\CCCCCCCC(=O)O[C@H]1C[C@]2(C)CC=C(C)CC[C@H]2[C@]1(O)C(C)C` [Compound C], for which the “effect on [^125 I]ChTX binding” value in data set [1] (concentrations up to 100 μM, tested at 1, 10 and 100 μM) is on record as “no effect on binding”. For the same compound, the “effect on channel open probability” value in data set [2] (setting [4]) was “small decreases in channel open probability”.
Take `CCCCCCCC/C=C\CCCCCCCC(=O)O[C@H]1C[C@]2(C)CC=C(C)CC[C@H]2[C@]1(O)C(C)C` [Compound D]: the remaining activity at 100 µM in data set [1] (1.5 h, pH 7.4, read-out: [^125 I]ChTX binding, % of that under control conditions) is 37%. In addition, in data set [1] (at 100 μM, tested at 1, 10 and 100 μM), the “inhibition of [^125 I]ChTX binding” value is “significant inhibition of binding”. The “effect on channel open probability” value in data set [2] (setting [4]) is listed as “small decreases in channel open probability”.
Consider `CC(C)[C@@]1(O)[C@@H]2CCC(CO)=CC[C@@]2(C)C[C@@H]1O` [Compound E], for which the “effect on toxin binding” value in data set [1] (concentrations from 1 nM to 100 μM) is listed as “did not produce any significant effect on toxin binding”. Besides, the “effect on channel open probability” value in data set [2] (setting [4]) is on record as “no observable effect on channel open probability”.

The values are drawn from patent publication US5399587A, “Biologically active compounds” (priority 1993, dated 1995).
